Source: patent publication US11452718B2 (AVALYN PHARMA INC., priority 2012, dated 2022)

What was measured:
PI3K = details: cited from earlier work
[1] = test system: sol elastase activity of CF sputum; details: direct treatment of unprocessed CF sputum; cited from earlier work
[2] = test system: relapsed/refractory multiple myeloma; details: cited from earlier work
[3] = Pharmacokinetics and tissue distribution (lung, plasma, heart, kidney) of co-solvent formulations, bolus intratracheal aerosol; type: in vivo, Sprague-Dawley rats; details: for Analyte in lung tissue, Mean: about 4 mg/kg pirfenidone IT bolus aerosol
Protocol: Selected formulations were prepared for pharmacokinetic analysis following aerosol delivery to rat lung. […] Formulations prepared for this study are outlined in Table 9. […] The sample was agitated until completely dissolved. […] Filtered samples were analyzed by HPLC.

mTOR = mTOR (Homo sapiens, UniProt P42345); details: cited from earlier work
breast cancer stem cells = details: mouse, in vivo; cited from earlier work
[4] = test system: EGFR mutation positive patients; details: cited from earlier work
cancer patients = details: cited from earlier work
p110-γ and p110-δ = details: versus the other isoforms; cited from earlier work
[5] = in vivo; cited from earlier work

## DNase
[1]
  increase of elastase activity: 190%

## CC(C)C[C@H](NC(=O)[C@H](Cc1ccccc1)NC(=O)c1cnccn1)B(O)O [Bortezomib]
[2]; human, in vivo
  patients with peripheral neuropathy: 30%
[2]; intravenous administration
  time to peak concentrations: about 30 minutes

## O=C(O)c1ccc(=O)n(-c2ccccc2)c1
[3]; 0 MIN
  Analyte in lung tissue, Mean: 0.00 μg/gram
[3]; Group 1, 0.0333 hr
  Analyte in lung tissue, Mean: 0.12 μg/gram
[3]; Group 1, 0.0667 hr
  Analyte in lung tissue, Mean: 0.13 μg/gram
[3]; Group 1, 0.1 hr
  Analyte in lung tissue, Mean: 0.48 μg/gram
[3]; Group 1, 0.167 hr
  Analyte in lung tissue, Mean: 0.49 μg/gram
[3]; Group 1, 0.333 hr
  Analyte in lung tissue, Mean: 0.96 μg/gram
[3]; Group 1, 0.667 hr
  Analyte in lung tissue, Mean: 0.96 μg/gram
[3]; Group 1, 1 hr
  Analyte in lung tissue, Mean: 0.73 μg/gram
[3]; Group 1, 2 hr
  Analyte in lung tissue, Mean: 0.21 μg/gram
[3]; Group 1, 2.5 hr
  Analyte in lung tissue, Mean: 0.10 μg/gram
[3]; Group 1, […]
  Analyte in lung tissue, Mean: 0.48 μg/gram
[3]; Group 3, 0.0333 hr
  Analyte in lung tissue, Mean: 0.05 μg/gram
[3]; Group 3, 0.0667 hr
  Analyte in lung tissue, Mean: 0.36 μg/gram
[3]; Group 3, 0.1 hr
  Analyte in lung tissue, Mean: 0.55 μg/gram
[3]; Group 3, 0.167 hr
  Analyte in lung tissue, Mean: 0.86 μg/gram
[3]; Group 3, 0.333 hr
  Analyte in lung tissue, Mean: 1.09 μg/gram
[3]; Group 3, 0.667 hr
  Analyte in lung tissue, Mean: 0.81 μg/gram
[3]; Group 3, 1 hr
  Analyte in lung tissue, Mean: 0.70 μg/gram
[3]; Group 3, 2 hr
  Analyte in lung tissue, Mean: 0.32 μg/gram
[3]; Group 3, 2.5 hr
  Analyte in lung tissue, Mean: 0.14 μg/gram
[3]; Group 3, […]
  Analyte in lung tissue, Mean: 0.52 μg/gram
[3]; Group 5, 0.0333 hr
  Analyte in lung tissue, Mean: 0.17 μg/gram
[3]; Group 5, 0.0667 hr
  Analyte in lung tissue, Mean: 0.42 μg/gram
[3]; Group 5, 0.1 hr
  Analyte in lung tissue, Mean: 0.35 μg/gram
[3]; Group 5, 0.167 hr
  Analyte in lung tissue, Mean: 0.53 μg/gram
[3]; Group 5, 0.333 hr
  Analyte in lung tissue, Mean: 1.32 μg/gram
[3]; Group 5, 0.667 hr
  Analyte in lung tissue, Mean: 0.96 μg/gram
[3]; Group 5, 1 hr
  Analyte in lung tissue, Mean: 0.75 μg/gram
[3]; Group 5, 2 hr
  Analyte in lung tissue, Mean: 0.18 μg/gram
[3]; Group 5, 2.5 hr
  Analyte in lung tissue, Mean: 0.10 μg/gram
[3]; Group 5, […]
  Analyte in lung tissue, Mean: 0.45 μg/gram
[3]; Group 6, 0.0333 hr
  Analyte in lung tissue, Mean: 0.17 μg/gram
[3]; Group 6, 0.0667 hr
  Analyte in lung tissue, Mean: 0.43 μg/gram
[3]; Group 6, 0.1 hr
  Analyte in lung tissue, Mean: 0.37 μg/gram
[3]; Group 6, 0.167 hr
  Analyte in lung tissue, Mean: 0.64 μg/gram
[3]; Group 6, 0.333 hr
  Analyte in lung tissue, Mean: 0.94 μg/gram
[3]; Group 6, 0.667 hr
  Analyte in lung tissue, Mean: 0.92 μg/gram
[3]; Group 6, 1 hr
  Analyte in lung tissue, Mean: 0.78 μg/gram
[3]; Group 6, 2 hr
  Analyte in lung tissue, Mean: 0.24 μg/gram
[3]; Group 6, 2.5 hr
  Analyte in lung tissue, Mean: 0.14 μg/gram
[3]; Group 6, […]
  Analyte in lung tissue, Mean: 0.43 μg/gram

## Cc1c(CN2CCN(S(C)(=O)=O)CC2)sc2c(N3CCOCC3)nc(-c3cnc(N)nc3)nc12 [GNE-477]
mTOR
  IC50: 21 nM

## CC[C@@H](C(=O)[C@@H](C)[C@@H](O)[C@H](C)[C@@H]1O[C@@H]([C@@H](CC)C(=O)O)CC[C@@H]1C)[C@H]1O[C@]2(C=C[C@@H](O)[C@]3(CC[C@@](C)([C@H]4CC[C@](O)(CC)[C@H](C)O4)O3)O2)[C@H](C)C[C@@H]1C [Salinomycin]
Breast cancer stem cells
  effectiveness relative to paclitaxel: at least 100 times

## C#Cc1cccc(Nc2ncnc3cc(OCCOC)c(OCCOC)cc23)c1 [erlotinib]
[4]; EGFR mutation positive patients
  response rate: approximately 60%
[4]; human, in vivo
  time to development of resistance from the start of treatment: 8-12 months

## N#CC1(c2ccc(NC(=O)c3cccnc3NCc3ccncc3)cc2)CCCC1 [Apatinib]
Cancer patients; 1000 mg/day
  dose limiting toxicities: 3 of 3
Cancer patients; 65 cancer patients, Phase I/II
  complete response: 1.54%
  partial response: 12.31%
  progressive disease: 20%
  stable disease: 66.15%
Cancer patients; daily for 28 days
  well tolerated dose: below 750 mg/day
Cancer patients; human, in vivo
  maximum tolerated dose: 850 mg/day

## Nc1nc(N)c2nc(-c3cccc(O)c3)c(-c3cccc(O)c3)nc2n1 [TG100-115]
p110-γ and p110-δ
  better potency against p110-γ and p110-δ: 5-10 fold

## O=C(O)c1ccc(=O)n(-c2ccccc2)c1 [5-carboxy-pirfenidone]
[5]
  share of urinary excretion being the primary metabolite: 95%
[3]; primary pirfenidone liver metabolite
  appearance of metabolite after direct aerosol administration to the lung: delayed appearance

B1: reduced rhTrx: stable reduced form of recombinant human thioredoxin (protein, UniProt P10599 2-105, looked up)
Thioredoxin: VKQIESKTAFQEALDAAGDKLVVVDFSATWCGPCKMIKPFFHSLSEKYSNVIFLEVDVDDCQDVASECEVKCMPTFQFFKKGQKVGEFSGANKEKLEATINELV
modifications: reduced form
[1]
  increase of elastase activity: 60%
